From patent US20170313674A1, “BENZYLHYDROXIDE DERIVATIVES, PREPARATION THEREOF AND THERAPEUTIC USE THEREOF” (SANOFI, priority 2014, published 2017)
Counter-ions that a name gives are not always drawn. Like-named read-outs stand apart in the source and are kept apart here.

What was measured:
[1] = tested on: mitochondrial ATP production on non-small cell lung carcinoma cell lines NCI-H460; test: Mitochondrial ATP analysis (Cell Titer Glo) in NCI-H460 cells; type: cell-based; conditions: 1-hour incubation, with sodium iodoacetate (100 μM), concentration inhibiting 50% of mitochondrial ATP production, read-out: IC50 (mito ATP)
Description: In order to evaluate the inhibitory activity of the all compounds, an in vitro assay was developed which read out is directly linked to mitochondrial complex 1 inhibition. Since mitochondrial complex 1 contributes to the formation of membrane potential coupled to the mitochondrial ATP synthesis, complex 1 inhibition directly leads in cells to the inhibition of mitochondrial ATP production. Cellular ATP contents were measured in presence of either glycolysis inhibitor (sodium iodocetate) and/or mitochondrial inhibitors (F0F1-ATPase inhibitor: oligomycin or mitochondrial uncoupler: FCCP) to determine the ATP production part relying either on glycolytic or on mitochondrial metabolism.
Mitochondrial ATP Analysis
The compounds of the invention were evaluated for their ability to inhibit mitochondrial
ATP was measured using the Promega Cell Titer Glo kit and protocol. In summary, 1,000 cells were plated in 40 μL in a 384 well plate. 24 hours later, medium was replaced by 20 μl culture medium in presence of compounds: cells were treated in replicates of five with control (PBS), oligomycin A (10 μg/ml), FCCP (30 μM), or the compounds of the invention in dose effect both alone or in combination with sodium iodoacetate (100 μM). Following a 1-hour incubation, 20 μL of CellTtiter-glo™ reaction mix were added to each well for a final volume of 40 μL. Plates were then analyzed for luminescence with a Perkin Elmer EnVision. By comparing the different conditions, global ATP and percentages of both glycolytic and mitochondrial ATP were determined.
The mitochondrial ATP production was calculated as the remaining ATP under iodoacetate treatment minus basal ATP (ATP content under iodoacetate and oligomycin treatment). Inhibitory activity of the compounds on mitochondrial ATP in NCI-H460 cells is expressed as the concentration needed to inhibit 50% of mitochondrial ATP production (IC50, M).

HIF-1a = test: Western blot model: HIF1-a stabilization in Hep3b cells under hypoxia; type: cell-based; conditions: hypoxia 1% O2, 6 hours; for Western Blot (range of decrease of HIF1-a stabilization): class symbol
Description: Since it was sought to determine the efficacy of the compounds to inhibit HIF1a stabilization under hypoxia, the compounds according to the invention underwent biochemical studies in order to determine their capacity to decrease HIF stabilization in Hep3b cells under hypoxia (western blot model).
Hep3B cells are seeded at a rate of 300000 cells per well in 6-wells culture plate in 2 ml of MEM supplemented with glutamin (2 mM) and 10% FCS (foetal calf serum) and incubated at 37° C. in the presence of 5% CO2. The next day, the cells are placed in contact with the compound and an incubation under hypoxia at 1% O2 is carried out at 37° C. in 95% humidity and 5% CO2 in a sealed anaerobic workstation (Hypoxystation H35-Don Whitley—AES Chemunex) during 6 hours.
Cells were washed (PBS) and lysed in SDS sample buffer. Proteins (25 μg) were separated on 4-12% Bis-Tris gels and transferred onto polyvinylidene difluoride membranes (Millipore). Membranes were blotted with a mouse monoclonal antibody to HIF-1a (BD transduction) and a mouse monoclonal anti-βactin (Sigma). Immunoreactive bands were detected with a horse radish peroxydase (HRP) anti-mouse antibody (Sigma) by enhanced chemiluminescence (Promega).
The inhibitory activity of the compounds for their capacity to decrease HIF1-a stabilization in Hep3b under hypoxia is expressed as range of percentage relative to control with: […]

SMILES | IC50 ([1]; Homo sapiens, NCI-H460, 1 h) [nM] | Western Blot (decrease of HIF1-a stabilization, percentage relative to control) (HIF-1a) [%] | Western Blot (range of decrease of HIF1-a stabilization) (HIF-1a) | IC50 [1] [nM]
COc1ccc(C(O)C(C)(C)Oc2ccc(-c3nc(-c4ccc(OC(C)(C)C(O)c5ccc(OC)c(OC)c5)cc4)c(C)o3)cc2)cc1OC (single isomer, unassigned) [Compound I-3, 1-(3,4-dimethoxyphenyl)-2-[4-[2-[4-[2-(3,4-dimethoxyphenyl)-2-hydroxy-1,1-dimethyl-ethoxy]phenyl]-5-methyl-oxazol-4-yl]phenoxy]-2-methyl-propan-1-ol] | 8.85 | 70 | *** (*** represents a decrease of HIF-a stabilization higher than 70%) | –
COc1ccc(C(O)C(C)(C)Oc2ccc(-c3nc(-c4ccc(OC(C)(C)C(O)c5ccc(OC)c(OC)c5)cc4)c(C)o3)cc2)cc1OC (single isomer, unassigned) [Compound I-4, 1-(3,4-dimethoxyphenyl)-2-[4-[2-[4-[2-(3,4-dimethoxyphenyl)-2-hydroxy-1,1-dimethyl-ethoxy]phenyl]-5-methyl-oxazol-4-yl]phenoxy]-2-methyl-propan-1-ol] | – | 72 | *** (*** represents a decrease of HIF-a stabilization higher than 70%) | 12
COc1ccc(C(O)C(C)(C)Oc2ccc(-c3nc(-c4ccc(OC(C)(C)C(O)c5ccc(OC)c(OC)c5)cc4)c(C)s3)cc2)cc1OC (single isomer, unassigned) [Compound I-8, 1-(3,4-dimethoxyphenyl)-2-[4-[2-[4-[2-(3,4-dimethoxyphenyl)-2-hydroxy-1,1-dimethyl-ethoxy]phenyl]-5-methyl-thiazol-4-yl]phenoxy]-2-methyl-propan-1-ol] | – | 47 | * (* represents a decrease of HIF-a stabilization between 30 to 50%) | 2.06
COc1ccc(C(O)C(C)(C)Oc2ccc(-c3nc(-c4ccc(OC(C)(C)C(O)c5ccc(OC)c(OC)c5)cc4)c(C)s3)cc2)cc1OC (single isomer, unassigned) [Compound I-9, 1-(3,4-dimethoxyphenyl)-2-[4-[2-[4-[2-(3,4-dimethoxyphenyl)-2-hydroxy-1,1-dimethyl-ethoxy]phenyl]-5-methyl-thiazol-4-yl]phenoxy]-2-methyl-propan-1-ol] | 3.86 | 58.5 | ** (** represents a decrease of HIF-a stabilization between 50 to 70%) | –
COc1ccc(C(O)COc2ccc(-c3nc(-c4ccc(OCC(O)c5ccc(OC)c(OC)c5)cc4)c(C)s3)cc2)cc1OC (single isomer, unassigned) [Compound I-10, 1-(3,4-dimethoxyphenyl)-2-[4-[2-[4-[2-(3,4-dimethoxyphenyl)-2-hydroxy-ethoxy]phenyl]-5-methyl-thiazol-4-yl]phenoxy]ethanol] | – | 62 | ** (** represents a decrease of HIF-a stabilization between 50 to 70%) | 146
COc1ccc(C(O)COc2ccc(-c3nc(-c4ccc(OCC(O)c5ccc(OC)c(OC)c5)cc4)c(C)s3)cc2)cc1OC (single isomer, unassigned) [Compound I-11, 1-(3,4-dimethoxyphenyl)-2-[4-[2-[4-[2-(3,4-dimethoxyphenyl)-2-hydroxy-ethoxy]phenyl]-5-methyl-thiazol-4-yl]phenoxy]ethanol] | – | 65 | ** (** represents a decrease of HIF-a stabilization between 50 to 70%) | 557
COc1ccc(C(O)COc2ccc(-c3coc(-c4ccc(OCC(O)c5ccc(OC)c(OC)c5)cc4)n3)cc2)cc1OC (single isomer, unassigned) [Compound I-13, 1-(3,4-dimethoxyphenyl)-2-[4-[2-[4-[2-(3,4-dimethoxyphenyl)-2-hydroxy-ethoxy]phenyl]oxazol-4-yl]phenoxy]ethanol] | – | 51 | ** (** represents a decrease of HIF-a stabilization between 50 to 70%) | 69
COc1ccc(C(O)COc2ccc(-c3coc(-c4ccc(OCC(O)c5ccc(OC)c(OC)c5)cc4)n3)cc2)cc1OC (single isomer, unassigned) [Compound I-14, 1-(3,4-dimethoxyphenyl)-2-[4-[2-[4-[2-(3,4-dimethoxyphenyl)-2-hydroxy-ethoxy]phenyl]oxazol-4-yl]phenoxy]ethanol] | – | 59 | ** (** represents a decrease of HIF-a stabilization between 50 to 70%) | 679
COc1ccc(C(O)C(C)(C)Oc2ccc(-c3coc(-c4ccc(OC(C)(C)C(O)c5ccc(OC)c(OC)c5)cc4)n3)cc2)cc1OC (single isomer, unassigned) [Compound I-18, 1-(3,4-dimethoxyphenyl)-2-[4-[2-[4-[2-(3,4-dimethoxyphenyl)-2-hydroxy-1,1-dimethyl-ethoxy]phenyl]oxazol-4-yl]phenoxy]-2-methyl-propan-1-ol] | – | 71 | *** (*** represents a decrease of HIF-a stabilization higher than 70%) | 62.8
COc1ccc(C(O)C(C)(C)Oc2ccc(-c3coc(-c4ccc(OC(C)(C)C(O)c5ccc(OC)c(OC)c5)cc4)n3)cc2)cc1OC (single isomer, unassigned) [Compound I-19, 1-(3,4-dimethoxyphenyl)-2-[4-[2-[4-[2-(3,4-dimethoxyphenyl)-2-hydroxy-1,1-dimethyl-ethoxy]phenyl]oxazol-4-yl]phenoxy]-2-methyl-propan-1-ol] | – | 56 | ** (** represents a decrease of HIF-a stabilization between 50 to 70%) | 245
COc1cc(C(O)COc2ccc(-c3coc(-c4ccc(OCC(O)c5cc(OC)c(OC)c(OC)c5)cc4)n3)cc2)cc(OC)c1OC (single isomer, unassigned) [Compound I-21, 2-[4-[2-[4-[2-hydroxy-2-(3,4,5-trimethoxyphenyl)ethoxy]phenyl]oxazol-4-yl]phenoxy]-1-(3,4,5-trimethoxyphenyl)ethanol] | – | 52 | ** (** represents a decrease of HIF-a stabilization between 50 to 70%) | 2650
COc1cc(C(O)COc2ccc(-c3coc(-c4ccc(OCC(O)c5cc(OC)c(OC)c(OC)c5)cc4)n3)cc2)cc(OC)c1OC (single isomer, unassigned) [Compound I-22, 2-[4-[2-[4-[2-hydroxy-2-(3,4,5-trimethoxyphenyl)ethoxy]phenyl]oxazol-4-yl]phenoxy]-1-(3,4,5-trimethoxyphenyl)ethanol] | – | 57 | ** (** represents a decrease of HIF-a stabilization between 50 to 70%) | 1280
COc1ccc(C(O)C(C)(C)Oc2ccc(-c3cn(CCN4CCOCC4)c(-c4ccc(OC(C)(C)C(O)c5ccc(OC)c(OC)c5)cc4)n3)cc2)cc1OC (centres unmarked) [Compound I-59, 1-(3,4-dimethoxyphenyl)-2-[4-[2-[4-[2-(3,4-dimethoxyphenyl)-2-hydroxy-1,1-dimethyl-ethoxy]phenyl]-1-(2-morpholinoethyl)imidazo1-4-yl]phenoxy]-2-methyl-propan-1-ol] | 2750 | – | – | –
COc1ccc(C(O)COc2ccc(-c3cn(CCN4CCOCC4)c(-c4ccc(OCC(O)c5ccc(OC)c(OC)c5)cc4)n3)cc2)cc1OC (centres unmarked) [Compound I-60, 1-(3,4-dimethoxyphenyl)-2-[4-[2-[4-[2-(3,4-dimethoxyphenyl)-2-hydroxy-ethoxy]phenyl]-1-(2-morpholinoethyl)imidazo1-4-yl]phenoxy]ethanol hydrochloride] | – | – | – | > 10000
